Measurements: patent publication US20190083521A1, “COMBINATION THERAPY FOR TREATING CANCER” (Epizyme, Inc., priority 2014, published 2019)

Assays:
MOLM-13 (MLL-AF9) cells = experiment: Example 7 retest: EPZ-5676 pre-treatment, second compound 72 h, Cell Titer Glo, growth inhibition; format: cell-based, human; parameters: GI100: unit not given here; conditions: MOLM-13 (MLL-AF9)
Procedure: (§1) Cells were then treated with a second compound for 72 hours. After this time, plates were developed for endpoint analysis using Cell Titer Glo to measure ATP content, which is used as an indicator of cell viability.
(§2) “N/D” means the GI100 of the second compound could not be determined for both conditions and “-” means not tested.
(§3) Growth Inhibition (GI) as a measure of cell viability: The cell viability of vehicle was measured at the time of dosing the second agent (T0) and after seventy-two hours (T72). […] A GI 200% represents complete death of all cells in the culture well. Compounds reaching an activity plateau of GI 200% are considered cytotoxic. GI is calculated by applying the following test and equation: […]

SKM-1 (non-MLLr) cells = experiment: as above; format: cell-based, human; parameters: GI100: unit not given here; conditions: SKM-1 (non-MLLr)
Procedure: as §1, §2, §3

[1] = tested on: OCI-AML-4 (MLL-ENL) cells; experiment: as above; format: cell-based; conditions: OCI-AML-4 (MLL-ENL)
Procedure: as §1, §2, §3

THP-1 (MLL-AF9) cells = experiment: as above; format: cell-based; parameters: GI100: unit not given here; conditions: NRAS G12D
Procedure: as §1, with “Cells were split using EPZ-5676 or DMSO containing growth media and further incubated for an additional 3-day pre-treatment time. Cells were finally seeded in growth media containing EPZ-5676 or DMSO in 96-well plates. Cells” for “Cells”
as §2
as §3, with “(T72). A GI reading of 0% represents no growth inhibition—cells treated with test compound as compared to T72 vehicle signals were measured.” for “(T72).”

ML-2 (MLL-AF6) cells = experiment: as above; format: cell-based; parameters: GI100: unit not given here; conditions: ML-2 (MLL-AF6), KRAS A146T (het)
Procedure: as §1, §2, §3

RS4-11 (MLL-AF4) cells = experiment: as above; format: cell-based; parameters: GI100: unit not given here; conditions: RS4-11 (MLL-AF4), Ras mutation status: None known, second compound, 72 h
Procedure: as §1, §2, §3

MOLM-13 cells = experiment: Example 6 combination screen: 300 nM EPZ-5676 pre-treatment, second compound 72 h, ATPLite, IC50 shift; format: cell-based, human; conditions: 300 nM EPZ-5676 pre-treatment (4 + 3 days) vs DMSO, then 2nd compound 72 h, IC50 shift of 2nd compound
Procedure: as §1, with “equilibrated in incubators for 24 hours before treatment with a second compound. Treated assay plates were incubated” for “treated”, “ATPLite” for “Cell Titer Glo”
(§4) “N/D” means that IC50 of the second compound could not be determined for both conditions.

SKM-1 cells = experiment: as above; format: cell-based, human; conditions: SKM-1 cells; 300 nM EPZ-5676 pre-treatment (4 + 3 days) vs DMSO, then 2nd compound 72 h; ATPLite; IC50 shift of 2nd compound
Procedure: as §1, with “equilibrated in incubators for 24 hours before treatment with a second compound. Treated assay plates were incubated” for “treated”, “ATPLite” for “Cell Titer Glo”
as §4

MV4-11 (MLL-AF4) cells = experiment: Combination proliferation assay with Compound A2 (CellTiter-Glo, Chou-Talalay CI); format: cell-based, human; conditions: MV4-11 (MLL-AF4); 7 Day Cotreatment Model
Procedure: The acute myelogenous leukemia cell lines MV4-11 (MLL-AF4) and MOLM-13 (MLL-AF9) were obtained from American Type Culture Collection (ATCC; Rockville, Md.) and Deutsche Sammlung von Mikroorganismen and Zellkulturen (DSMZ; Braunschweig, Germany) respectively.
(§5) Studies were performed using MLL-rearranged cell lines in vitro to evaluate the anti-proliferative effect of a combination of two agents together on cell growth. Initial proliferation studies were performed to determine the IC50 of a given compound in each cell line. The cell counts were measured by ATP quantitation using the Promega Cell Titer Glo kit and luminescence values corresponded to the amount of ATP in a given well.
Compounds were evaluated for synergy in the co-treatment phase by testing the compounds in a concentration range which was bracketed around their IC50 values. The compounds were plated to a 96 well plate in a matrix format (FIG. 3) which includes increasing concentrations of each drug in the combination in a constant ratio, in addition to the effect of each compound alone in the study. Cells were seeded and grown in the log-linear phase for 3 or 7 days in the co-treatment phase. Minimum inhibition (DMSO alone) controls were used in each plate to calculate fraction affected (Fa) of a test well. DMSO concentration was kept at 0.1% v/v.
The drug combination analysis was performed utilizing the Chou-Talalay method Synergy was determined using the software package Calcusyn by Biosoft. The combination index (CI) is a quantitative term used to describe the level of synergy or antagonism in a given test system. A combination index less than one indicates synergy, and a CI greater than one indicates antagonism. Further, strong synergism is achieved when the CI value falls below 0.3.
The HP-D300 digital dispenser (Tecan) was used to dispense compounds in a combinatorial matrix. […] Cell viability was measured via ATP content using CellTiter-Glo® (Promega).
Viability was determined using CellTiter-Glo® (Promega).
as §5, with “Proliferation studies” for “Studies”, “MOLM-13, MV4-11 and SKM-1” for “MLL-rearranged”, “cancer cell killing” for “anti-proliferative”, “IC50 values” for “IC50”, “correspond” for “corresponded”
These studies were performed to evaluate both the combinatorial effect of compounds on cell killing and the durability of the effect by washing out one of the agents.
Compounds evaluated for synergy in the co-treatment phase were tested in a range which was bracketed around the IC50's. The compounds were plated to a 96 well plate in a matrix format which includes increasing concentrations of each drug in the combination in a constant ratio, in addition to the effect of each compound alone in the study. Cells were seeded and grown in the log-linear phase for 3 or 7 days in the cotreatment phase. Maximum and minimum inhibition (DMSO alone) controls were used in each plate to calculate fraction affected (Fa) of a test well. DMSO concentration was kept at 0.1% v/v. The drug combination analysis was performed utilizing the Chou-Talalay method. Synergy was determined using the software package Calcusyn by Biosoft. The combination index (CI) is the term used to describe the level of synergy or antagonism in a given test system. A combination index less than one indicates synergy, and a CI greater than one indicates antagonism.
The drug combination analysis was performed using the Chou-Talalay method. Graphs representing values of combination index (CI) versus Fractional effect (Fa) known as Fa-CI plots were generated and synergy was evaluated. Drug synergy was statistically defined by CI values less than 1, antagonism by CI>1 and additive effect by CI equal to 1.

[2] = 300 nM EPZ-5676 pre-treatment vs DMSO
[3] = KRAS K117N (homo), second compound, 72 h
[4] = NRAS Q61R (het), second compound, 72 h

Cn1cnc2c(F)c(Nc3ccc(Br)cc3F)c(C(=O)NOCCO)cc21 [Binimetinib (MEK-162), Binimetinib]
GI50 (MOLM-13 (MLL-AF9) cells; Homo sapiens, Ras mutation status: None known, second compound, 72 h): 0.72 µM | Combination result with EPZ-5676, Retest (MOLM-13 (MLL-AF9) cells; 150 nM EPZ-5676 pre-treatment vs DMSO): Synergy (considered synergistic if the GI100 (Growth inhibition 100) value of the second compound decreased by 2-fold or more when EPZ-5676 was added as compared to the DMSO control) | Result (combination with EPZ-5676) (MOLM-13 (MLL-AF9) cells; Ras mutation status: None known): Synergy (considered synergistic if the GI100 (Growth inhibition 100) value of the second compound decreased by 2-fold or more when EPZ-5676 was added as compared to the DMSO control) | GI100 (MOLM-13 (MLL-AF9) cells; Ras mutation status: None known, second compound, 72 h): 3.96 | Combination result with EPZ-5676, Retest (SKM-1 (non-MLLr) cells; [2]): Synergy (considered synergistic if the GI100 (Growth inhibition 100) value of the second compound decreased by 2-fold or more when EPZ-5676 was added as compared to the DMSO control) | Result (combination with EPZ-5676) (SKM-1 (non-MLLr) cells; KRAS K117N (homo)): Synergy (considered synergistic if the GI100 (Growth inhibition 100) value of the second compound decreased by 2-fold or more when EPZ-5676 was added as compared to the DMSO control) | GI50 (SKM-1 (non-MLLr) cells; [3]): 0.01 µM | GI100 (SKM-1 (non-MLLr) cells; [3]): 0.07 | Combination result with EPZ-5676, Retest [1, 2]: Synergy (considered synergistic if the GI100 (Growth inhibition 100) value of the second compound decreased by 2-fold or more when EPZ-5676 was added as compared to the DMSO control) | Result (combination with EPZ-5676) ([1]; NRAS Q61R (het)): Synergy (considered synergistic if the GI100 (Growth inhibition 100) value of the second compound decreased by 2-fold or more when EPZ-5676 was added as compared to the DMSO control) | GI50 [1, 4]: 0.059 µM | GI100 [1, 4]: 1.504 | GI50 (THP-1 (MLL-AF9) cells): 0.09 µM | GI100 (THP-1 (MLL-AF9) cells): >10 | Result (combination with EPZ-5676) (ML-2 (MLL-AF6) cells): Synergy (considered synergistic if the GI100 (Growth inhibition 100) value of the second compound decreased by 2-fold or more when EPZ-5676 was added as compared to the DMSO control) | GI50 (ML-2 (MLL-AF6) cells; second compound, 72 h): 0.03 µM | GI100 (ML-2 (MLL-AF6) cells; second compound, 72 h): 0.50 | GI50 (RS4-11 (MLL-AF4) cells; Homo sapiens): > 10 µM | GI100 (RS4-11 (MLL-AF4) cells): >10

COc1cc2c(NC3CCN(C4CCCCC4)CC3)nc(N3CCCN(C(C)C)CC3)nc2cc1OCCCN1CCCCC1 [UNC 0646]
Summary of Combination Studies: MOLM-13 (MOLM-13 cells): Synergy (considered synergistic if the IC50 value of the second compound decreased by 2-fold or more when EPZ-5676 was added as compared to the DMSO control) | Summary of Combination Studies: SKM-1 (SKM-1 cells): Synergy (considered synergistic if the IC50 value of the second compound decreased by 2-fold or more when EPZ-5676 was added as compared to the DMSO control)

Cc1sc2c(c1C)C(c1ccc(Cl)cc1)=N[C@@H](CC(N)=O)c1nnc(C)n1-2 [CPI-203]
Summary of Combination Studies: MOLM-13 (MOLM-13 cells): Synergy (considered synergistic if the IC50 value of the second compound decreased by 2-fold or more when EPZ-5676 was added as compared to the DMSO control) | Summary of Combination Studies: SKM-1 (SKM-1 cells): Synergy (considered synergistic if the IC50 value of the second compound decreased by 2-fold or more when EPZ-5676 was added as compared to the DMSO control)

O=C(c1cn(Cc2cncn2Cc2ccc(Br)cc2)cc1-c1cccc2ccccc12)N1CCOCC1 [LB42708]
Summary of Combination Studies: MOLM-13 (MOLM-13 cells): Synergy (considered synergistic if the IC50 value of the second compound decreased by 2-fold or more when EPZ-5676 was added as compared to the DMSO control) | Summary of Combination Studies: SKM-1 (SKM-1 cells): Synergy (considered synergistic if the IC50 value of the second compound decreased by 2-fold or more when EPZ-5676 was added as compared to the DMSO control)

O=C(/C=C/c1ccc(O)c(O)c1)OCCc1ccccc1 [CAPE]
Summary of Combination Studies: MOLM-13 (MOLM-13 cells): Synergy (considered synergistic if the IC50 value of the second compound decreased by 2-fold or more when EPZ-5676 was added as compared to the DMSO control) | Summary of Combination Studies: SKM-1 (SKM-1 cells): Synergy (considered synergistic if the IC50 value of the second compound decreased by 2-fold or more when EPZ-5676 was added as compared to the DMSO control)

O=C(Nc1ccccc1-c1cn2c(CN3CCNCC3)csc2n1)c1cnc2ccccc2n1 [SRT-1720]
Combination effect with Compound A2 (Table 4) (MV4-11 (MLL-AF4) cells): Synergy (Drug synergy was statistically defined by CI values less than 1) | Summary of Combination Studies: MOLM-13 (MOLM-13 cells): Synergy (considered synergistic if the IC50 value of the second compound decreased by 2-fold or more when EPZ-5676 was added as compared to the DMSO control)
